According to patent publication US11702399B2, “Quinazolinone derivative, preparation method therefor, pharmaceutical composition, and applications” (KANGPU BIOPHARMACEUTICALS, LTD., priority 2016, dated 2023):
Where two headings read alike, the source gives them in different places.

Experiments:
Assay type in all cases: cell-based
[1] = test system: MM.1S cells (myeloma cells); experiment: CTG cell proliferation, MM.1S; conditions: Homo sapiens, MM1.S, CellTiter-Glo, 72-120 hours, read-out: IC50 value for MM.1S Inhibition
Excerpt: (§1) Efficacy Example 2: CTG Cell Proliferation Experimental Method
(§2) MM.1S cells (myeloma cells) (ATCC, catalog number CRL-2974), DOHH2 cells (mantle cell lymphoma cells) (DSMZ, catalog number ACC-47), NCI-H929 cells (myeloma cells) (ATCC, catalog number CRL-9068), or WSU-DLCL-2 cells (diffuse large B cell lymphoma cells) (DSMZ, catalog number ACC-575), Namalwa.CSN/70 cells (non-Hodgkin's lymphoma cells (DSMZ, catalog number ACC-70) was inoculated as (1.8-15)×10^3 per well in white wall, transparent bottom 96-well plate containing specific media (Corning, catalog number CLS3903), which was cultured in 37° C., 5% CO2 incubator for 24 hours. Compounds were formulated in DMSO (Sigma, Cat. No. 276855) as 150 mM stock, which was diluted to the required concentration (DMSO final concentration is 0.2%) in culture medium and added to each well, 2 wells/concentration. The plate was incubated in 37° C., 5% CO2 incubator for 72-120 hours. Afterwards, 100 μl of CellTiter-Glo® cell activity assay reagent (Promega, Cat. No. G7570) was added to each well, which was mixed on a plate shaker for 10 minutes to induce cell lysis. The 96-well plate was allowed to stand at room temperature for 10 minutes to stabilize the luminescence signal. A white base film was pasted on the bottom of the plate and the EnSpire was used to read the plate. Data processing was performed with XLfit software to obtain IC50 values.

[2] = test system: NCI-H929 cells (myeloma cells); experiment: CTG cell proliferation, NCI-H929; conditions: Homo sapiens, Table 2 batch, CellTiter-Glo, 72-120 hours, read-out: IC50 value for NCI-H929 Inhibition
Excerpt: as §1, §2

[3] = test system: Namalwa.CSN/70 cells (non-Hodgkin's lymphoma cells); experiment: CTG cell proliferation, Namalwa.CSN/70; conditions: Table 2 batch; CellTiter-Glo, 72-120 hours; read-out: IC50 value for Namalwa. CSN/70 Inhibition
Excerpt: as §1, §2

[4] = test system: DOHH2 cells (mantle cell lymphoma cells); experiment: CTG cell proliferation, DOHH2; conditions: Homo sapiens, DOHH-2; Table 2 batch; CellTiter-Glo, 72-120 hours; read-out: IC50 value for DOHH2 Inhibition
Excerpt: as §1, §2

TNF-α = TNF-α activity inhibition assay (LPS-stimulated hPBMC, TNF-α ELISA); conditions: Homo sapiens, 18 h
Description: Efficacy Example 1: TNF-α Activity Inhibition Assay
Heat Inactivated FBS: Invitrogen, Cat #10100147
DMSO: Dimethyl sulphoxide, Sigma, Cat #D8418
CTL-Anti-Aggregate Wash 20×: CTL, Cat #CTL-AA-005
Human TNF ELISA Set: BD, Cat #555212
PBMC Recovery and Cell Plating Steps
1) Agitation was performed continuously in a 37° C. water bath to rapidly thaw cells.
2) The cells were gently added to a 15 ml centrifuge tube, to which was then added 10 ml of fresh, prewarmed recovery medium gently and then centrifugation was performed at 1000 rpm for 10 min.
3) The supernatant medium was discarded and resuspension was performed with 10 ml of fresh, prewarmed RPMI 1640 complete medium.
1) The total number of cells needed for the experiment was calculated and adjusted to the appropriate cell concentration per ml. 100 ul and 10^5 cells per well.
2) The cell suspension was diluted with appropriate volume of cell culture medium.
3) The cell suspension was added to a disposable sterile sample well.
4) 100 ul of cell suspension was added to each well of a 96-well plate.
5) The plate was incubated in a 37° C., 5% CO2 incubator for 2 hours.
Compound Preparation Step
1. LPS: The 1 mg/mL stock solution was diluted with water, aliquoted, and stored at −80° C. Prior to each test, the working solution of LPS was diluted from the stock solution with serum-free RPMI 1640 medium.
20 mM stock solution was dissolved in DMSO and the compound was checked for solubility, aliquoted, and stored at −80° C.
8× compound gradient preparation: […]
A series of compound concentration gradient was diluted with DMSO: 10 mM, 2 mM, 0.4 mM, 80 uM, 16 uM, 3.2 uM, 0.64 uM, 0.128 uM were obtained and then the compounds were diluted 125-fold with serum-free RPMI 1640 medium to the final 8×. The final concentration of DMSO in cell culture was 0.1%.
Compound Processing Experimental Procedures and Collection of Supernatants
1. Cell Plating: Fresh cells were plated in 96-well cell culture plates according to the procedure above, 100 ul and 10^5 cells per well, and then incubated in a 37° C., 5% CO2 incubator for 2 hours.
2. Compound Preparation: Before test, compounds were added to the plates according to the above description. A dose of compound in 8× concentration was prepared with serum-free RPMI 1640 medium and all gradients of solution were added to the compound plate.
3. Compound addition: 16.7 ul of compound solution in working concentration was added to each well of the cell culture plate. The plate was incubated in a 37° C., 5% CO2 incubator for 1 hour.
4. 16.7 ul of 8×LPS per well (final concentration of LPS is EC80, the amount of each PBMC needed to be determined) was added. The plate was incubated for 18 hours in 37° C., 5% CO2 incubator.
5. 80 ul of supernatant per well was collected and then subjected to TNF-α ELISA assay. The collected supernatant can be stored at −80° C. The supernatant needed to be diluted in various ratios to ensure that the experimental dose would not exceed the linear range of the TNF-α standard curve, depending on the amount of TNF-α released in different donors. Typically, 20-100 ul of supernatant was diluted to 200 ul and then used for ELISA experiments.
The TNF-α ELISA test procedure were referred to the BD human TNF-α ELISA kit experimental procedure.
Four compounds per plate. 5-fold dilution was performed, starting from 10 uM, by 8 gradients, and parallel wells were made. A total of 16 compounds were tested.
The TNF-α standard was added to each plate. (1st well, starting from 500 pg/ml, 2-fold dilution, 7 gradients)
ZPE (0% inhibition) used 15 pg/ml LPS+0.1% DMSO, while HPE (100% inhibition) used only 0.1% DMSO.
The inhibition rate statistics were calculated. The inhibition rate (%)=[1−[…]]*100%. IC50 was used to evaluate the concentration of the test compound (nM) at 50% inhibition.

[5] = test system: WSU-DLCL-2 cells (diffuse large B cell lymphoma cells); experiment: CTG cell proliferation, WSU-DLCL-2; conditions: Homo sapiens, WSUDLCL2; Table 2 batch; CellTiter-Glo, 72-120 hours; read-out: IC50 value for WSU-DLCL2 Inhibition
Excerpt: as §1, §2

SMILES: Nc1cccc2c1CN(C1CCC(=O)NC1=O)C2=O (stereo not shown) [Compound B001]
- IC50 ([1]; Table 2 batch): 362 nM
- IC50 [2]: 1000 nM
- IC50 [3]: > 300000 nM
- IC50 [4]: > 300000 nM
- IC50 (TNF-α; Table 1-1 experiment): 99.1 nM
- IC50 (TNF-α; Table 1 experiment): 192 nM
- IC50 [5]: > 300000 nM

SMILES: Cc1nc2cccc(N)c2c(=O)n1C1CCC(=O)NC1=O (stereo not shown) [Compound K001, reference compound]
- IC50 ([1]; Table 2 batch): 49.8 nM
- IC50 ([1]; Table 3 batch): 37.5 nM
- IC50 ([1]; Table 4 batch): 275 nM
- IC50 [2]: 86.1 nM
- IC50 [3]: 65.8 nM
- IC50 [4]: 459 nM
- IC50 (TNF-α; Table 1-1 experiment): 32.8 nM
- IC50 (TNF-α; Table 1 experiment): 32.5 nM
- IC50 [5]: 469 nM

SMILES: Cc1nc2cc(F)cc(N)c2c(=O)n1C1CCC(=O)NC1=O (stereo not shown) [Compound K101]
- IC50 ([1]; Table 2 batch): 13.3 nM
- IC50 [2]: 30.4 nM
- IC50 [3]: 6.8 nM
- IC50 [4]: 125 nM
- IC50 (TNF-α; Table 1-1 experiment): 10.2 nM
- IC50 (TNF-α; Table 1 experiment): 27.8 nM
- IC50 [5]: 179 nM

SMILES: Cc1nc2cc(F)cc(N)c2c(=O)n1[C@H]1CCC(=O)NC1=O [Compound K102]
- IC50 ([1]; Table 4 batch): 104 nM
- IC50 (TNF-α; Table 1-1 experiment): 7.3 nM

SMILES: Cc1nc2cc(F)cc(N)c2c(=O)n1[C@@H]1CCC(=O)NC1=O [Compound K103]
- IC50 ([1]; Table 4 batch): 465 nM
- IC50 (TNF-α; Table 1-1 experiment): 283 nM

SMILES: [2H]C1(n2c(C)nc3cc(F)cc(N)c3c2=O)CCC(=O)NC1=O (stereo not shown) [Compound K104]
- IC50 ([1]; Table 4 batch): 192 nM

SMILES: [2H][C@]1(n2c(C)nc3cc(F)cc(N)c3c2=O)CCC(=O)NC1=O [Compound K105]
- IC50 ([1]; Table 4 batch): 33 nM
- IC50 (TNF-α; Table 1-1 experiment): 6.4 nM

SMILES: [2H][C@@]1(n2c(C)nc3cc(F)cc(N)c3c2=O)CCC(=O)NC1=O [Compound K106]
- IC50 ([1]; Table 4 batch): 504 nM
- IC50 (TNF-α; Table 1-1 experiment): 781 nM

SMILES: Cc1nc2cc(Cl)cc(N)c2c(=O)n1C1CCC(=O)NC1=O (stereo not shown) [Compound K401]
- IC50 ([1]; Table 3 batch): 22 nM
- IC50 (TNF-α; Table 1-1 experiment): 10.2 nM

SMILES: Cc1nc2cc(Br)cc(N)c2c(=O)n1C1CCC(=O)NC1=O (stereo not shown) [Compound K501]
- IC50 ([1]; Table 3 batch): 26.7 nM
- IC50 (TNF-α; Table 1-1 experiment): 9.6 nM

SMILES: CNc1cc(F)cc2nc(C)n(C3CCC(=O)NC3=O)c(=O)c12 (stereo not shown) [Compound K613]
- IC50 (TNF-α; Table 1-1 experiment): 9.4 nM

SMILES: Cc1nc2cc(F)cc(NC(C)C)c2c(=O)n1C1CCC(=O)NC1=O (stereo not shown) [Compound K617]
- IC50 (TNF-α; Table 1-1 experiment): 153 nM

SMILES: COc1cc(F)cc2nc(C)n(C3CCC(=O)NC3=O)c(=O)c12 (stereo not shown) [Compound K627]
- IC50 ([1]; Table 3 batch): 5930 nM

SMILES: Cc1nc2cc(F)cc(O)c2c(=O)n1C1CCC(=O)NC1=O (stereo not shown) [Compound K631]
- IC50 ([1]; Table 3 batch): 956 nM

SMILES: CC(=O)Nc1cc(F)cc2nc(C)n(C3CCC(=O)NC3=O)c(=O)c12 (stereo not shown) [Compound K633]
- IC50 ([1]; Table 3 batch): 314 nM
- IC50 (TNF-α; Table 1-1 experiment): 392 nM

SMILES: Cc1nc2cc(F)cc(NC(=O)C(C)C)c2c(=O)n1C1CCC(=O)NC1=O (stereo not shown) [Compound K635]
- IC50 ([1]; Table 3 batch): 2810 nM

SMILES: Cc1nc2cc(O)cc(N)c2c(=O)n1C1CCC(=O)NC1=O (stereo not shown) [Compound K700]
- IC50 ([1]; Table 3 batch): 507 nM

SMILES: Cc1nc2cc(OCc3ccccc3)cc(N)c2c(=O)n1C1CCC(=O)NC1=O (stereo not shown) [Compound K704]
- IC50 (TNF-α; Table 1-1 experiment): 466 nM

SMILES: Cc1nc2cc(OCc3ccc(CN4CCOCC4)cc3F)cc(N)c2c(=O)n1C1CCC(=O)NC1=O (stereo not shown) [Compound K706]
- IC50 (TNF-α; Table 1-1 experiment): 319 nM

SMILES: Cc1cc(N)c2c(=O)n(C3CCC(=O)NC3=O)c(C)nc2c1 (stereo not shown) [Compound K720]
- IC50 (TNF-α; Table 1-1 experiment): 138 nM

SMILES: Cc1nc2cc(C#N)cc(N)c2c(=O)n1C1CCC(=O)NC1=O (stereo not shown) [Compound K724]
- IC50 (TNF-α; Table 1-1 experiment): 5.9 nM

SMILES: Cc1nc2cc(F)ccc2c(=O)n1C1CCC(=O)NC1=O (stereo not shown) [Reference 1, reference compound]
- IC50 ([1]; Table 3 batch): 2400 nM
- IC50 (TNF-α; Table 1-1 experiment): 2800 nM

SMILES: Cc1nc2c(F)ccc(N)c2c(=O)n1C1CCC(=O)NC1=O (stereo not shown) [Reference 2, reference compound]
- IC50 ([1]; Table 3 batch): > 300000 nM

SMILES: Cc1nc2ccc(F)c(N)c2c(=O)n1C1CCC(=O)NC1=O (stereo not shown) [Reference 3, reference compound]
- IC50 ([1]; Table 3 batch): 1170 nM
